Activity calls are given as the source filed them. No cut-off for these calls is given here.
Key:
PANC-1 [1] = test: Induction of cell cycle arrest in human PANC-1 cells assessed as accumulation at G2 phase at 2.5 uM incubated for 24 hrs by PI staining based flow cytometry (reference value: 9.36 %); format: functional
CAPAN-1 = test: Antiproliferative activity against human CAPAN-1 cells expressing BRCA-/- assessed as inhibition of cell survival incubated for 5 days by CCK8 assay; format: functional, cell-based; conditions: CAPAN-1, 120 h
PANC-1 [2] = test: Antitumor activity against human PANC-1 cells xenografted in BALB/c mouse assessed as inhibition of tumor volume at 40 mg/kg, ip for 4 weeks administered for 5 days consecutively and 2 days without treatment on every week in presence of JQ1; format: functional, organism-based
[3] = Toxicity in BALB/c mouse xenografted with human PANC-1 cells assessed as drug tolerance at 40 mg/kg, ip for 4 weeks administered for 5 days consecutively and 2 days without treatment on every week; format: organism-based; conditions: in vivo, 672 h
PANC-1 [4] = test: Antiproliferative activity against human PANC-1 cells expressing wild-type BRCA assessed as inhibition of cell survival incubated for 5 days by CCK8 assay; format: functional, cell-based; conditions: PANC-1, 120 h
PANC-1 [5] = test: Induction of apoptosis in human PANC-1 cells assessed as viable cells at 0.6 uM incubated for 48 hrs by Annexin V-FITC/PI staining based flow cytometry (reference value: 91.64 %); format: functional; conditions: read-out: Activity
PANC-1 [6] = test: Induction of apoptosis in human PANC-1 cells assessed as late apoptotic cells at 0.6 uM incubated for 48 hrs by Annexin V-FITC/PI staining based flow cytometry (reference value: 3.87 %); format: functional
PANC-1 [7] = test: Induction of apoptosis in human PANC-1 cells assessed as early apoptotic cells at 2 uM incubated for 48 hrs by Annexin V-FITC/PI staining based flow cytometry (reference value: 1.41 %); format: functional
PANC-1 [8] = test: Induction of cell cycle arrest in human PANC-1 cells assessed as accumulation at G1 phase at 2 uM incubated for 24 hrs by PI staining based flow cytometry (reference value: 51.70 %); format: functional
PANC-1 [9] = test: Induction of apoptosis in human PANC-1 cells assessed as viable cells at 2.5 uM incubated for 48 hrs by Annexin V-FITC/PI staining based flow cytometry (reference value: 91.64 %); format: functional; conditions: read-out: Activity
PANC-1 [10] = test: Induction of cell cycle arrest in human PANC-1 cells assessed as accumulation at G1 phase at 5 uM incubated for 24 hrs by PI staining based flow cytometry (reference value: 51.70 %); format: functional
[11] = Toxicity in BALB/c mouse xenografted with human PANC-1 cells assessed as body weight loss at 40 mg/kg, ip for 4 weeks administered for 5 days consecutively and 2 days without treatment on every week; format: organism-based; conditions: in vivo, 672 h
[12] = Toxicity in BALB/c mouse xenografted with human PANC-1 cells assessed as body weight loss at 40 mg/kg, ip for 4 weeks administered for 5 days consecutively and 2 days without treatment on every week in presence of JQ1; format: organism-based; conditions: in vivo, 672 h
PANC-1 [13] = test: Induction of cell cycle arrest in human PANC-1 cells assessed as accumulation at S phase at 2 uM incubated for 24 hrs by PI staining based flow cytometry (reference value: 38.94 %); format: functional
PANC-1 [14] = test: Induction of cell cycle arrest in human PANC-1 cells assessed as accumulation at S phase at 5 uM incubated for 24 hrs by PI staining based flow cytometry (reference value: 38.94 %); format: functional
PANC-1 [15] = test: Induction of apoptosis in human PANC-1 cells assessed as late apoptotic cells at 2 uM incubated for 48 hrs by Annexin V-FITC/PI staining based flow cytometry (reference value: 3.87 %); format: functional
PANC-1 [16] = test: Induction of apoptosis in human PANC-1 cells assessed as viable cells at 10 uM incubated for 48 hrs by Annexin V-FITC/PI staining based flow cytometry (reference value: 91.64 %); format: functional; conditions: read-out: Activity
PANC-1 [17] = test: Induction of apoptosis in human PANC-1 cells assessed as viable cells at 2 uM incubated for 48 hrs by Annexin V-FITC/PI staining based flow cytometry (reference value: 91.64 %); format: functional; conditions: read-out: Activity
[18] = Toxicity in BALB/c mouse xenografted with human PANC-1 cells assessed as pathological changes in liver at 40 mg/kg, ip for 4 weeks administered for 5 days consecutively and 2 days without treatment on every week in presence of JQ1 by H and E staining based analysis; format: organism-based; conditions: in vivo, 672 h
PANC-1 [19] = test: Anti-migration activity in human PANC-1 cells at 2 uM in presence of JQ1 incubated for 24 hrs by wound healing assay; format: functional, cell-based
PANC-1 [20] = test: Induction of cell cycle arrest in human PANC-1 cells assessed as accumulation at G1 phase at 10 uM incubated for 24 hrs by PI staining based flow cytometry (reference value: 51.70 %); format: functional
PANC-1 [21] = test: Induction of apoptosis in human PANC-1 cells assessed as viable cells at 2 uM incubated for 48 hrs in presence of JQ1 by Annexin V-FITC/PI staining based flow cytometry (reference value: 91.64 %); format: functional; conditions: read-out: Activity
PANC-1 [22] = test: Induction of cell cycle arrest in human PANC-1 cells assessed as accumulation at G2/M phase incubated for 24 hrs by PI staining based flow cytometry; format: functional; conditions: dose 0.6-2 µM
[23] = Toxicity in BALB/c mouse xenografted with human PANC-1 cells assessed as pathological changes in lung at 40 mg/kg, ip for 4 weeks administered for 5 days consecutively and 2 days without treatment on every week by H and E staining based analysis; format: organism-based; conditions: in vivo, 672 h
PANC-1 [24] = test: Induction of cell cycle arrest in human PANC-1 cells assessed as accumulation at G0/G1 phase at 2 uM incubated for 24 hrs in presence of JQ1 by PI staining based flow cytometry relative to control; format: functional
PANC-1 [25] = test: Induction of apoptosis in human PANC-1 cells assessed as necrotic cells at 10 uM incubated for 48 hrs by Annexin V-FITC/PI staining based flow cytometry (reference value: 3.09 %); format: functional
[26] = Toxicity in BALB/c mouse xenografted with human PANC-1 cells assessed as pathological changes in lung at 40 mg/kg, ip for 4 weeks administered for 5 days consecutively and 2 days without treatment on every week in presence of JQ1 by H and E staining based analysis; format: organism-based; conditions: in vivo, 672 h
PANC-1 [27] = test: Induction of apoptosis in human PANC-1 cells assessed as necrotic cells at 2 uM incubated for 48 hrs by Annexin V-FITC/PI staining based flow cytometry (reference value: 3.09 %); format: functional
BXPC-3 = test: Antiproliferative activity against human BXPC-3 cells expressing wild-type BRCA assessed as inhibition of cell survival incubated for 5 days by CCK8 assay; format: functional, cell-based; conditions: BXPC-3, 120 h
PANC-1 [28] = test: Induction of apoptosis in human PANC-1 cells assessed as early apoptotic cells at 2.5 uM incubated for 48 hrs by Annexin V-FITC/PI staining based flow cytometry (reference value: 1.41 %); format: functional
PANC-1 [29] = test: Induction of cell cycle arrest in human PANC-1 cells assessed as accumulation at G2 phase at 2 uM incubated for 24 hrs by PI staining based flow cytometry (reference value: 9.36 %); format: functional
PANC-1 [30] = test: Induction of cell cycle arrest in human PANC-1 cells assessed as accumulation at G2 phase at 10 uM incubated for 24 hrs by PI staining based flow cytometry (reference value: 9.36 %); format: functional

Compound	Activity (PANC-1 [1]) [%]	IC50 (CAPAN-1) [µM]	inhibition (PANC-1 [2])	Activity [3]	IC50 (PANC-1 [4]) [µM]	viability at 0.6 µM (PANC-1 [5]) [%]	Activity (PANC-1 [6]) [%]	Activity (PANC-1 [7]) [%]	Activity (PANC-1 [8]) [%]	viability at 2.5 µM (PANC-1 [9]) [%]	Activity (PANC-1 [10]) [%]	Activity [11]	Activity [12]	Activity (PANC-1 [13]) [%]	Activity (PANC-1 [14]) [%]	Activity (PANC-1 [15]) [%]	viability at 2 µM (PANC-1 [17]) [%]	Activity (PANC-1 [27]) [%]	IC50 (BXPC-3) [µM]	Activity (PANC-1 [29]) [%]	other results
O=C1CCC(N2C(=O)c3cccc(NC(=O)CNCCCCCCCCCCC(=O)N4CCN(C(=O)c5cc(Cc6n[nH]c(=O)c7ccccc67)ccc5F)CC4)c3C2=O)C(=O)N1 (centres undefined)	12.98	< 10	Active	Non-toxic	< 10	88.9	3.89	4.35	43.66	88.9	43.66	Non-toxic	Non-toxic	41.71	42.71	5.84	86.3	3.54	< 10	14.63	viability at 10 µM (PANC-1 [16]): 86.3%; Activity [18]: Non-toxic; Activity (PANC-1 [19]): Active; Activity (PANC-1 [20]): 43.14%; viability at 2 µM (PANC-1 [21]): 64.3%; Activity (PANC-1 [22]): Dose-dependent-effect; Activity [23]: Non-toxic; Activity (PANC-1 [24]): 50.25%; Activity (PANC-1 [25]): 3.83%; Activity [26]: Non-toxic; Activity (PANC-1 [28]): 4.13%; Activity (PANC-1 [30]): 15.94%
Cc1sc2c(c1C)C(c1ccc(Cl)cc1)=N[C@@H](CC(=O)OC(C)(C)C)c1nnc(C)n1-2		< 10			< 10			6.1	59.44					28.44		14.01	74.4	6.51	< 10	12.12	
O=C(c1cc(Cc2n[nH]c(=O)c3ccccc23)ccc1F)N1CCN(C(=O)C2CC2)CC1 [OLAPARIB]	14.19	< 10	Active	Non-toxic	< 10	90.3	4.21	3.48	45.99	89.2	40.8	Non-toxic	Toxic	39.4	43.96	4.61	89.7	2.23	< 10	14.61	viability at 10 µM (PANC-1 [16]): 87.3%; Activity [18]: Non-toxic; Activity (PANC-1 [19]): Active; Activity (PANC-1 [20]): 35.31%; viability at 2 µM (PANC-1 [21]): 68.3%; Activity (PANC-1 [22]): Dose-dependent-effect; Activity [23]: Non-toxic; Activity (PANC-1 [24]): 12.43%; Activity (PANC-1 [25]): 3.35%; Activity [26]: Non-toxic; Activity (PANC-1 [28]): 2.76%; Activity (PANC-1 [30]): 19.74%
